Assays:
[1] = tested on: red potatoes; assay: wounding combined with precursor exposure: N-trans-feruloyltyramine production in sliced red potatoes; parameters: species or system Solanum tuberosum; details: sliced red potatoes dipped in 400 μM tyramine or citric acid (pH ~4); for N-trans-feruloyltyramine production: 4 days at room temperature, water control
Description: Red potatoes were sliced (i.e., and boiled in water for 6 minutes or dipped into abiotic […]) aqueous solutions of 400 μM tyramine or citric acid (pH ˜4).
For this analysis, red potatoes were sliced to a standard thickness (¼ inch; two potatoes/time point). Subsequently, the potato slices were either boiled in water for 6 minutes, or dipped into aqueous solutions of 400 μM tyramine (as precursor) or citric acid (pH ˜4; as a preservative), or water (control). The potato slices were loosely covered to allow for air flow and incubated for 4 days at room temperature.

[2] = tested on: Solanum tuberosum; assay: wounding response of potato tubers (N-trans-feruloyltyramine production); details: wounded potatoes
Description: Thus, it was determined whether elevated levels tyramine containing hydroxycinnamic acid amides could be generated in situ by subjecting a plant to an abiotic stress, e.g., wounding. In particular, yellow tubers of Solanum tuberosum were wounded by wounding and production of N-trans-feruloyltyramine in the tuber was assessed 1, 5 and 9 days after wounding.

[3] = tested on: red potatoes; assay: wounding combined with THT enzyme elicitors: N-trans-feruloyltyramine production in sliced red potatoes; parameters: species or system Solanum tuberosum; details: sliced red potatoes dipped in 1 mg/ml laminaran, 10 mg/ml inactivated cordy-gen fungi or 10 mg/ml live endomycorrhizal fungi; 4 or 8 days at room temperature; water control
Description: Red potatoes were sliced (i.e., wounded) and dipped into aqueous solutions of 10 mg/ml live endomycorrhizal fungi, 10 mg/ml inactivated cordy-gen fungi, or 1 mg/ml laminaran (polysaccharide from brown algae).
For this analysis, red potatoes were sliced to a standard thickness. Subsequently, the potato slices were dipped into solutions of 10 mg/ml live endomycorrhizal fungi, 10 mg/ml inactivated cordy-gen fungi (from Mycopia), 1 mg/ml laminaran (polysaccharide from brown algae) or water (control) The potato slices were loosely covered to allow for air flow and incubated for 4 or 8 days at room temperature.

Compound | browning of the wounded potato slices [1] | N-trans-feruloyltyramine production [1] | effect on the wounding response [2] | production of N-trans-feruloyltyramine in response to wounding [3]
O=C(O)CC(O)(CC(=O)O)C(=O)O [citric acid] | inhibited the browning pathway | little effect |  | 
NCCc1ccc(O)cc1 [tyramine] | further increased browning | could enhance | enhanced the wounding response | 
laminaran |  |  |  | substantially enhanced

Source: patent US11647776B2, “Extract, consumable product and method for enriching bioactive metabolite in an extract” (Brightseed, Inc., priority 2019, dated 2023)
